Experiment [1] has as its target T1, full length human Scyl1 (1-808) protein (Homo sapiens, UniProt Q96KG9).
T1 construct: The target enzyme used was the full length human Scyl1 (1-808) protein
T1 sequence (Q96KG9 1-808): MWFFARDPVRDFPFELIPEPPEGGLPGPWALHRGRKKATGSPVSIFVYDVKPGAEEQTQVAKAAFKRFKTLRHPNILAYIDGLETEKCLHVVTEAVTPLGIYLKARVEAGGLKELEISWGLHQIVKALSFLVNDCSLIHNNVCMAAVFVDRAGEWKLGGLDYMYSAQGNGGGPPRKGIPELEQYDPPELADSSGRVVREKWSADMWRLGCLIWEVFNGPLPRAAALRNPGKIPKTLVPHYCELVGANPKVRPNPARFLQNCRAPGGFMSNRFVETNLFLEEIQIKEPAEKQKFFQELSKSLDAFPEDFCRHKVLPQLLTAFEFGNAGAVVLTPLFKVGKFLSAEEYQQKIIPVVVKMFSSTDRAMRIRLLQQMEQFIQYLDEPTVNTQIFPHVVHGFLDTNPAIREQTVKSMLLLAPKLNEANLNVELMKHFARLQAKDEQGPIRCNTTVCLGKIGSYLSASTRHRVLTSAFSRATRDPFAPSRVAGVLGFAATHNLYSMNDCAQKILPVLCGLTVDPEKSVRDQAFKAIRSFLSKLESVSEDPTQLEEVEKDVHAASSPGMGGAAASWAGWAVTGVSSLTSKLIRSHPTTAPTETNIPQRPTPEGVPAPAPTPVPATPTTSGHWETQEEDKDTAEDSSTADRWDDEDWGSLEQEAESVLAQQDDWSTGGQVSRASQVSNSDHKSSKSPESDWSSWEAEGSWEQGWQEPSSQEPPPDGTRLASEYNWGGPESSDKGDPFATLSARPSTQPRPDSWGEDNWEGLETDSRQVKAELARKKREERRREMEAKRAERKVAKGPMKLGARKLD
Nature of the experiment: SCYL1 reporter probe displacement assay. Format: binding. On the procedure: The reporter displacement assay is based on reporter probe (PRO16, Proteros GmbH) that is designed to bind to ATP-binding site of SCYL1 (Methods in Enzymology, 2011, vol. 493, p. 300-319). The proximity between reporter probe and target protein (SCYL1) results in the emission of an optical signal. Test compounds that bind to the same site as the reporter probe displace the probe, causing signal diminution. The rate of reporter probe displacement is measured over time after addition of test compounds at various concentrations.
For Kd determination, percent reporter probe displacement values are calculated for the last time point, at which the system has reached equilibrium. For each compound concentration percent probe displacement values are calculated and plotted against the compound concentration. IC50-like values (corresponding to 50% probe displacement) are calculated using standard fitting algorithms. […] Thus, according to the Cheng Prusoff equation, the Kd value of test compounds can be calculated with Kd = ½ IC50. […]
Probe displacement was calculated in relation to the C+(positive) and C-(negative) controls. The signal reflecting 0% probe displacement (C+) was measured in the absence of test compound, while the signal representing 100% probe displacement (C-) was measured in the absence of Scyl1. […]

The target in experiment [2] is T2, GRK5 (Homo sapiens, UniProt P34947).
T2 construct: purchased Millipore (KinaseProfiler service)
As to the kind of experiment: GRK5 radiometric filtration binding assay (Millipore KinaseProfiler). The note with it: Table 6. Format: biochemical. As for the experimental part: As alternative, IC50 values are determined by a radiometric based filtration binding assay, namely Millipore KinaseProfiler™. GRK5 is incubated with 8 mM MOPS pH7.0, 0.2 mM EDTA, 2 mg/mL casein, 10 mM MgAcetate and […] (specific activity approx. 500 cpm/pmol, concentration as required). The reaction is initiated by the addition of the MgATP mix. After incubation for 40 minutes at room temperature, the reaction is stopped by the addition of 3 % phosphoric acid solution. 10 µL of the reaction is then spotted onto a P30 filtermat and washed three times for 5 minutes in 75 mM phosphoric acid and once in methanol prior to drying and scintillation counting.

T2 sequence (P34947 whole entry): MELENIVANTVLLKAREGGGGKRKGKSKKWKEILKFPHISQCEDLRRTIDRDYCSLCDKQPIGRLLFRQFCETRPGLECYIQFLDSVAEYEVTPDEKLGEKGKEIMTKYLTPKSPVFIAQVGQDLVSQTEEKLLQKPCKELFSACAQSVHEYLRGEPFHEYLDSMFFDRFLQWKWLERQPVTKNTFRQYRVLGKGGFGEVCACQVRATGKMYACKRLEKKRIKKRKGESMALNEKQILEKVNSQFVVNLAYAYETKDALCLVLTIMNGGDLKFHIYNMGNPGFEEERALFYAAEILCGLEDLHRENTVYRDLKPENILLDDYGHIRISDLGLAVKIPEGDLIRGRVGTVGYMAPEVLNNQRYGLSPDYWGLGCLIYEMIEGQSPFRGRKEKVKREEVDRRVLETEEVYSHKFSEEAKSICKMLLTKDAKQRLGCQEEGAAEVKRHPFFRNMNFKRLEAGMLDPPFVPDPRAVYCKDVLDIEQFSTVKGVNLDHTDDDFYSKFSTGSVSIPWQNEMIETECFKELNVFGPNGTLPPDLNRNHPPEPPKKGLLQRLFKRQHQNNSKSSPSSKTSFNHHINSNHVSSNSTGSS

The compound `COc1cc(-c2ccc3ncc(-c4cccnc4)n3n2)cc(OC)c1OC` [compound 10, 3-(3-pyridyl)-6-(3,4,5-trimethoxyphenyl)imidazo[1,2-b]pyridazine] registered an IC50 in experiment [1] (Scyl1 probe displacement) of 0.5 µM. In addition, the Inh. in experiment [1] (probe displacement, primary screen) turned out to be 100%.

`NC(=O)c1ccc(-c2cnc3ccc(Cc4ccc(F)cc4)nn23)cc1` [compound 1, 4-[6-[(4-fluorophenyl)methyl]imidazo[1,2-b]pyridazin-3-yl]benzamide]: the IC50 in experiment [2] lay in the range of 5 to 20 µM.

By IC50 is commonly meant the concentration at which inhibition is half-maximal. Low readings indicate greater potency, high ones weaker potency.

Source of the values: patent EP2818471A1, “Nitrogen bicyclic compounds as inhibitors for Scyl1 and Grk5” (Max-Planck-Gesellschaft zur Förderung der Wissenschaften …, priority 2013, dated 2014).
